Experiments:
[1] = target: GSK3β (H350L) (Homo sapiens (Human), UniProt P49841); conditions: read-out: GSK3β Ki
Protocol: The assay was initiated with the addition of ATP, following 15 minutes pre-incubation of enzyme and inhibitor at room temperature in the reaction mixture. The reaction was stopped after 30 minutes at room temperature by the addition of 50 μL of 80 mM EDTA.

[2] = target: CDK2/Cyclin E1 full length (Homo sapiens (Human), UniProt P24941); assay: CDK2/Cyclin E1 full length mobility shift assay; type: biochemical

Chain of GSK3β (H350L) (P49841 whole entry, stated change not applied): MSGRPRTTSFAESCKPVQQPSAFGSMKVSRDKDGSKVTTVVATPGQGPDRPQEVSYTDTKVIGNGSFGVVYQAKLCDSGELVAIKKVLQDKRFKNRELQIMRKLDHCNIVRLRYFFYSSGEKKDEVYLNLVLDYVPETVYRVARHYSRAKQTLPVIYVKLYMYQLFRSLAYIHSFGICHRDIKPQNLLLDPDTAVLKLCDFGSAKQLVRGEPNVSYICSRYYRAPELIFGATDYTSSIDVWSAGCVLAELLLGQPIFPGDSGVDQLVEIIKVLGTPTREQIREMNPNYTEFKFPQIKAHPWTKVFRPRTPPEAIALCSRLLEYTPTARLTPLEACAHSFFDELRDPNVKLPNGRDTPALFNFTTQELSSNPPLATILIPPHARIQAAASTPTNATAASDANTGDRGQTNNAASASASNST

C[C@@H]1COCCN1C(=O)O[C@@H]1CC[C@H](c2cc(NC(=O)Cc3cc(F)cc(F)c3)n[nH]2)C1 [Example 645, (1R,3S)-3-(3-{[(3,5-difluorophenyl)acetyl]amino}-1H-pyrazol-5-yl)cyclopentyl (3R)-3-methylmorpholine-4-carboxylate]
Ki [1]: 7.23 nM
Ki [2]: 0.37 nM

CC(C)NC(=O)O[C@@H]1CC[C@H](c2cc(NC(=O)Cc3cnn(C)c3)n[nH]2)C1 [Example 60]
Ki [1]: 92.5 nM
Ki [2]: 0.33 nM

CCCNC(=O)O[C@H]1CC[C@@H](c2cc(NC(=O)c3cc(C)nn3C)n[nH]2)C1 [Example 172, (1S,3R)-3-(3-{[(1,3-dimethyl-1H-pyrazol-5-yl)carbonyl]amino}-1H-pyrazol-5-yl)cyclopentyl propylcarbamate]
Ki [1]: 102 nM
Ki [2]: 1.2 nM

CCNC(=O)O[C@@H]1CC[C@H](c2cc(NC(=O)Cc3ccnc(OC)c3)n[nH]2)C1 [Example 232, (1R,3S)-3-(3-{[(2-methoxypyridin-4-yl)acetyl]amino}-1H-pyrazol-5-yl)cyclopentyl ethylcarbamate]
Ki [1]: 34.1 nM
Ki [2]: 1.54 nM

CCCNC(=O)O[C@H]1CC[C@@H](c2cc(NC(=O)c3ccnc(C)c3)n[nH]2)C1 [Example 170, (1S,3R)-3-(3-{[(2-methylpyridin-4-yl)carbonyl]amino}-1H-pyrazol-5-yl)cyclopentyl propylcarbamate]
Ki [1]: > 191 nM
Ki [2]: 1.37 nM

COc1ccc(CC(=O)Nc2cc([C@H]3CC[C@@H](OC(=O)N4C[C@@H](OC)[C@@H]4C)C3)[nH]n2)cn1 [Example 621, (1R,3S)-3-(3-{[(6-methoxypyridin-3-yl)acetyl]amino}-1H-pyrazol-5-yl)cyclopentyl (2S,3R)-3-methoxy-2-methylazetidine-1-carboxylate]
Ki [1]: 2.77 nM
Ki [2]: 0.36 nM

CC[C@H](C)NC(=O)O[C@@H]1CC[C@H](c2cc(NC(=O)Cc3cc(C)no3)n[nH]2)C1 [Example 32]
Ki [1]: 35.7 nM
Ki [2]: 0.36 nM

CCCNC(=O)O[C@H]1CC[C@@H](c2cc(NC(=O)c3ccnc(OC)c3)n[nH]2)C1 [Example 184, (1S,3R)-3-(3-{[(2-methoxypyridin-4-yl)carbonyl]amino}-1H-pyrazol-5-yl)cyclopentyl propylcarbamate]
Ki [1]: > 95.3 nM
Ki [2]: 1.35 nM

CCCNC(=O)O[C@H]1CC[C@@H](c2cc(NC(=O)c3ccc(C)nc3C)n[nH]2)C1 [Example 180, (1S,3R)-3-(3-{[(2,6-dimethylpyridin-3-yl)carbonyl]amino}-1H-pyrazol-5-yl)cyclopentyl propylcarbamate]
Ki [1]: > 95.3 nM
Ki [2]: 0.81 nM

CCNC(=O)O[C@@H]1CC[C@H](c2cc(NC(=O)Cc3ccc(OC)nc3)n[nH]2)C1 [Example 231, (1R,3S)-3-(3-{[(6-methoxypyridin-3-yl)acetyl]amino}-1H-pyrazol-5-yl)cyclopentyl ethylcarbamate]
Ki [1]: 15.6 nM
Ki [2]: 1.18 nM

COc1ccc(CC(=O)Nc2cc([C@H]3CC[C@@H](OC(=O)NCC(F)F)C3)[nH]n2)cn1 [Example 252, (1R,3S)-3-(3-{[(6-methoxypyridin-3-yl)acetyl]amino}-1H-pyrazol-5-yl)cyclopentyl (2,2-difluoroethyl)carbamate]
Ki [1]: 10.6 nM
Ki [2]: 1.39 nM

CC(C)(C)NC(=O)O[C@@H]1CC[C@H](c2cc(NC(=O)Cc3cnc(C(F)(F)F)cn3)n[nH]2)C1 [Example 317, (1R,3S)-3-[3-({[5-(trifluoromethyl)pyrazin-2-yl]acetyl}amino)-1H-pyrazol-5-yl]cyclopentyl tert-butylcarbamate]
Ki [1]: 46 nM
Ki [2]: 0.26 nM

CC[C@H](C)NC(=O)O[C@@H]1CC[C@H](c2cc(NC(=O)Cc3nc(C)cs3)n[nH]2)C1 [Example 343, (1R,3S)-3-(3-{[(4-methyl-1,3-thiazol-2-yl)acetyl]amino}-1H-pyrazol-5-yl)cyclopentyl (2S)-butan-2-ylcarbamate]
Ki [1]: 26.1 nM
Ki [2]: 0.77 nM

Cc1cnc(CC(=O)Nc2cc([C@H]3CC[C@@H](OC(=O)N4CCC4(C)C)C3)[nH]n2)cn1 [Example 601, (1R,3S)-3-(3-{[(5-methylpyrazin-2-yl)acetyl]amino}-1H-pyrazol-5-yl)cyclopentyl 2,2-dimethylazetidine-1-carboxylate]
Ki [1]: 7.32 nM
Ki [2]: 0.39 nM

CC[C@H](C)NC(=O)O[C@@H]1CC[C@H](c2cc(NC(=O)Cc3cc(OC)ncc3S(C)(=O)=O)n[nH]2)C1 [Example 375, (1R,3S)-3-[3-({[2-methoxy-5-(methylsulfonyl)pyridin-4-yl]acetyl}amino)-1H-pyrazol-5-yl]cyclopentyl (2S)-butan-2-ylcarbamate]
Ki [1]: 116 nM
Ki [2]: 0.31 nM

COCCn1nccc1C(=O)Nc1cc([C@H]2CC[C@@H](OC(=O)NC(C)(C)C)C2)[nH]n1 [Example 308, (1R,3S)-3-[3-({[1-(2-methoxyethyl)-1H-pyrazol-5-yl]carbonyl}amino)-1H-pyrazol-5-yl]cyclopentyl tert-butylcarbamate]
Ki [1]: 89.1 nM
Ki [2]: 0.3 nM

CC[C@H](C)NC(=O)O[C@@H]1CC[C@H](c2cc(NC(=O)Cc3cnc(C(F)(F)F)cn3)n[nH]2)C1 [Example 363, (1R,3S)-3-[3-({[5-(trifluoromethyl)pyrazin-2-yl]acetyl}amino)-1H-pyrazol-5-yl]cyclopentyl (2S)-butan-2-ylcarbamate]
Ki [1]: 52 nM
Ki [2]: 0.35 nM

Cn1cc(CC(=O)Nc2cc([C@H]3CC[C@@H](OC(=O)NCCC(F)(F)F)C3)[nH]n2)cn1 [Example 216, (1R,3S)-3-(3-{[(1-methyl-1H-pyrazol-4-yl)acetyl]amino}-1H-pyrazol-5-yl)cyclopentyl (3,3,3-trifluoropropyl)carbamate]
Ki [1]: 28.2 nM
Ki [2]: 0.86 nM

C[C@H]1COCCN1C(=O)O[C@@H]1CC[C@H](c2cc(NC(=O)Cc3cc(F)cc(F)c3)n[nH]2)C1 [Example 644, (1R,3S)-3-(3-{[(3,5-difluorophenyl)acetyl]amino}-1H-pyrazol-5-yl)cyclopentyl (3S)-3-methylmorpholine-4-carboxylate]
Ki [1]: 8.71 nM
Ki [2]: 0.33 nM

Cn1ccc(CC(=O)Nc2cc([C@H]3CC[C@@H](OC(=O)N4CCCC4(C)C)C3)[nH]n2)n1 [Example 639, (1R,35)-3-(3-{[(1-methyl-1H-pyrazol-3-yl)acetyl]amino}-1H-pyrazol-5-yl)cyclopentyl 2,2-dimethylpyrrolidine-1-carboxylate]
Ki [1]: 6.34 nM
Ki [2]: 0.47 nM

Cc1ccc(CC(=O)Nc2cc([C@@H]3CC[C@H](OC(=O)N[C@H]4CC[C@@H](O)CC4)C3)[nH]n2)cn1 [Example 545, (1S,3R)-3-(3-{[(6-methylpyridin-3-yl)acetyl]amino}-1H-pyrazol-5-yl)cyclopentyl (cis-4-hydroxycyclohexyl)carbamate]
Ki [1]: 2.2 nM
Ki [2]: 0.39 nM

CC[C@H](C)NC(=O)O[C@@H]1CC[C@H](c2cc(NC(=O)c3cc(COC)nn3C)n[nH]2)C1 [Example 14, (1R,3S)-3-[3-({[3-(methoxymethyl)-1-methyl-1H-pyrazol-5-yl]carbonyl}amino)-1H-pyrazol-5-yl]cyclopentyl (2S)-butan-2-ylcarbamate]
Ki [1]: 294 nM
Ki [2]: 0.27 nM

COc1cc(CC(=O)Nc2cc([C@@H]3CC[C@H](OC(=O)N4C[C@@](C)(O)[C@@H]4C)C3)[nH]n2)ccn1 [Example 624, (1S,3R)-3-(3-{[(2-methoxypyridin-4-yl)acetyl]amino}-1H-pyrazol-5-yl)cyclopentyl (2S,3R)-3-hydroxy-2,3-dimethylazetidine-1-carboxylate]
Ki [1]: 16.3 nM
Ki [2]: 4.18 nM

CCNC(=O)O[C@@H]1CC[C@H](c2cc(NC(=O)Cc3ccc(C)nc3)n[nH]2)C1 [Example 227, (1R,3S)-3-(3-{[(6-methylpyridin-3-yl)acetyl]amino}-1H-pyrazol-5-yl)cyclopentyl ethylcarbamate]
Ki [1]: 18.9 nM
Ki [2]: 1.21 nM

Cc1ccc(CC(=O)Nc2cc([C@@H]3CC[C@H](OC(=O)N[C@H]4CC[C@H](O)CC4)C3)[nH]n2)nc1 [Example 549, (1S,3R)-3-(3-{[(5-methylpyridin-2-yl)acetyl]amino}-1H-pyrazol-5-yl)cyclopentyl (trans-4-hydroxycyclohexyl)carbamate]
Ki [1]: 3.24 nM
Ki [2]: 0.9 nM

Cc1cc(CC(=O)Nc2cc([C@H]3CC[C@@H](OC(=O)N4[C@@H](C)CC[C@@H]4C)C3)[nH]n2)on1 [Example 638, (1R,3S)-3-(3-{[(3-methyl-1,2-oxazol-5-yl)acetyl]amino}-1H-pyrazol-5-yl)cyclopentyl (2S,5S)-2,5-dimethylpyrrolidine-1-carboxylate]
Ki [1]: 14.9 nM
Ki [2]: 0.28 nM

CC[C@H](C)NC(=O)O[C@@H]1CC[C@H](c2cc(NC(=O)Cc3ccnn3C)n[nH]2)C1 [Example 326, (1R,3S)-3-(3-{[(1-methyl-1H-pyrazol-5-yl)acetyl]amino}-1H-pyrazol-5-yl)cyclopentyl (2S)-butan-2-ylcarbamate]
Ki [1]: 72.4 nM
Ki [2]: 1.17 nM

CCCNC(=O)O[C@@H]1CC[C@H](c2cc(NC(=O)Cc3cc(C)ccc3S(C)(=O)=O)n[nH]2)C1 [Example 206, (1R,3S)-3-[3-({[5-methyl-2-(methylsulfonyl)phenyl]acetyl}amino)-1H-pyrazol-5-yl]cyclopentyl propylcarbamate]
Ki [1]: > 95.3 nM
Ki [2]: 1.22 nM

CCCNC(=O)O[C@@H]1CC[C@H](c2cc(NC(=O)c3ccc(OC)nc3)n[nH]2)C1 [Example 183, (1R,3S)-3-(3-{[(6-methoxypyridin-3-yl)carbonyl]amino}-1H-pyrazol-5-yl)cyclopentyl propylcarbamate]
Ki [1]: > 95.3 nM
Ki [2]: 3.68 nM

CCCNC(=O)O[C@@H]1CC[C@H](c2cc(NC(=O)Cc3cnco3)n[nH]2)C1 [Example 167, (1R,3S)-3-{3-[(1,3-oxazol-5-ylacetyl)amino]-1H-pyrazol-5-yl}cyclopentyl propylcarbamate]
Ki [1]: 33.9 nM
Ki [2]: 1.4 nM

CC[C@H](C)NC(=O)O[C@@H]1CC[C@H](c2cc(NC(=O)Cc3ccccc3S(=O)(=O)NC)n[nH]2)C1 [Example 374, (1R,3S)-3-[3-({[2-(methylsulfamoyl)phenyl]acetyl}amino)-1H-pyrazol-5-yl]cyclopentyl (2S)-butan-2-ylcarbamate]
Ki [1]: 10.8 nM
Ki [2]: 0.32 nM
